Measured values as given in patent US10982188B2, “Synthetic retina” (University of Newcastle Upon Tyne, priority 2014, dated 2021).

What was measured:
[1] = test system: hESC and hiPSC derived photoreceptors; experiment: Calcium imaging (Fura-2) of cGMP response; assay type: cell-based, human; conditions: for effect on cGMP-mediated increase in Ca2+ influx: cobalt chloride and magnesium chloride together in the perfusate with cGMP
Excerpt: In order to determine whether developing photoreceptors contained the machinery necessary for transduction, the inventors plated differentiating EBs onto poly-L-ornithine and laminin-coated 6 well plates for 15 days prior to optical recording using calcium imaging. Membrane disks in the outer segment of native photoreceptors contain a photopigment (for example the rod-specific pigment rhodopsin consists of opsin+retinal), and the cell membrane in outer segments contains cyclic guanosine monophosphate (cGMP)-gated cationic (sodium and calcium) channels. In the dark, cGMP levels are high and the photoreceptors are maintained in a depolarised state via influx of Na^+ and Ca^2+ through these cGMP-gated channels which are in an open state. Exposure to light causes the retinal part of the photopigment to isomerise to trans-retinal, leading to activation of multiple G-proteins and phosphodiesterase 6 which in turns degrades cGMP, resulting in closure of the channels and membrane hyperpolarisation. To test if the hESC and hiPSC derived photoreceptors respond in a similar manner, on day 30, 45 and 60 of differentiation, cells were exposed to flashes of red, green, blue or white light, or to membrane-permeable 8-br-cGMP. As 8-br-cGMP opens the cationic (Na^+ and Ca^2+) channel associated with phototransduction, it triggers a Ca^2+ influx in photoreceptors known as the inward dark current. Loading cells with the fluorescent Ca^2+ indicator Fura-2 therefore enables the visualisation of changes in intracellular calcium associated with opening or closing of the cGMP-gated channel, with a decrease in fluorescence representing an increase in calcium influx.
EBs were dark adapted for 24 hours prior to recording then loaded with Fura-2 AM (10 μM, Molecular probes/Invitrogen) for 45 min at 37° C. (95% O2/5% CO2) followed by perfusion (1 ml/minute) with oxygenated artificial Cerebrospinal Fluid (aCSF; 118 mM NaCl, 25 mM NaHCO3, 1 mM NaH2PO4, 3 mM KCl, 1 mM MgCl2, 2 mM CaCl2, 10 mM glucose) for one hour. Cells were exposed to 8-br-cGMP (cGMP, 1 mM, Sigma) in aCSF. Control recordings were performed with aCSF alone or with 8-br-cGMP in CaCl2-free aCSF supplemented with calcium channel blocker Cobalt (II) chloride (CoCl2, 4 mM, AnalaR) and 10 mM HEPES. Fluorescence was monitored using an inverted Olympus IX71 microscope and images (excitation 380 nm, 800 ms exposure) acquired using a Quantem 512SC camera (Photometrics) and MetaMorph Software (Molecular Devices). For each stimulation 20 seconds baseline activity was recorded. Fluorescence change was analysed using the formula % Δl/lo=(l1−lo)×100/lo, where lo was the average cellular fluorescence during baseline activity and l1 following stimulation. Significance was determined using a student's t-test (P<0.01).

IGF-IR = target: T1, IGF-IR (Homo sapiens, UniProt P08069); experiment: IGF-1 receptor signalling interference: optic vesicle/optic cup formation and survival of EBs; assay type: cell-based; conditions: for optic vesicle production from differentiating EBs: 7 μM
T1 construct: endogenous in cells; host or cells: hESC (line H9, WiCell)-derived embryoid bodies
T1 sequence (P08069 31-1367): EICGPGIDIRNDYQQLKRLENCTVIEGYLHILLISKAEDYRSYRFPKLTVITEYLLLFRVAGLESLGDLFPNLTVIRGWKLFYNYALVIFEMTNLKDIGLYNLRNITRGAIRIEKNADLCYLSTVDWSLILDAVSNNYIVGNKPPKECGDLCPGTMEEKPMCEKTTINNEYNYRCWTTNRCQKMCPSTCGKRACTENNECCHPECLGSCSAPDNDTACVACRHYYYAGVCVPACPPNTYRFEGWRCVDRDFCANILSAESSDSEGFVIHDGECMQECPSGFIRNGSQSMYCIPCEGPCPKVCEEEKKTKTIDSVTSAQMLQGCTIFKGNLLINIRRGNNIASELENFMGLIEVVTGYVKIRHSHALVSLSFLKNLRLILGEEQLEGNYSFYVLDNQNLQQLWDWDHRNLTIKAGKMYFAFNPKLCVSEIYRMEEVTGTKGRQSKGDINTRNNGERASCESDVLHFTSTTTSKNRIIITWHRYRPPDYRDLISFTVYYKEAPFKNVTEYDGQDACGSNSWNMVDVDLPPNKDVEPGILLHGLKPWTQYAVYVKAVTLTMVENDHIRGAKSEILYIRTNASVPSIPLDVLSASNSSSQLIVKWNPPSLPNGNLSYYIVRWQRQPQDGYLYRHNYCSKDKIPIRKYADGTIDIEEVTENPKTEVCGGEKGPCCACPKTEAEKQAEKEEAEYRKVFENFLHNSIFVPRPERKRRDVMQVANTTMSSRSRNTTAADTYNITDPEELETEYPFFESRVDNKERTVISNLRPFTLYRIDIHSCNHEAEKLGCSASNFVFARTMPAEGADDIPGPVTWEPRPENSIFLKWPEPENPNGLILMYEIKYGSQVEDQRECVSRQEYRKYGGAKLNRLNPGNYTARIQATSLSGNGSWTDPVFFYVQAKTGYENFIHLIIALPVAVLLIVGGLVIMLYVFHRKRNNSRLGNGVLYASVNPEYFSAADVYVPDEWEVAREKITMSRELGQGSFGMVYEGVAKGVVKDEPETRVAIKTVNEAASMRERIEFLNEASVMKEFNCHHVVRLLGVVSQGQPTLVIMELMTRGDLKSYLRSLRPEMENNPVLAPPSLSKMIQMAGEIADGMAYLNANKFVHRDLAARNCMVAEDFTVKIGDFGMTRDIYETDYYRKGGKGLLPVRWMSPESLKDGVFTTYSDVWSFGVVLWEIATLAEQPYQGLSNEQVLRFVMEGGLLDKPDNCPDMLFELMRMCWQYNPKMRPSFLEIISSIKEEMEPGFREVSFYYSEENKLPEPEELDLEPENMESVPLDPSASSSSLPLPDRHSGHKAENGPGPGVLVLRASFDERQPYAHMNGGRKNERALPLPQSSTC
Protocol: To confirm the contribution of the IGF-1 signalling pathway in this process, the inventors differentiated cells in the presence of a pharmacological inhibitor of the IGF-IR (pi(IR)) or a neutralising antibody directed against the IGF-II receptor, IGF-IIR ((n)IIR), in the presence (+) or absence (−) of IGF-1 supplementation (FIG. 5I, J).
hESCs were expanded and differentiated as described. For interference of IGF-1 receptor signalling an IGF-IR-specific pharmacological inhibitor ([7 μM], AG1024, Stratech) was added to differentiation media for the entire differentiation period. To block/neutralise IGF-II receptor signalling, media was supplemented with goat IgG anti-human IGF-IIR antibody ([0.25 μg/ml], AF2447, R&D) throughout differentiation.

[2] = test system: human pluripotent stem cells; experiment: Modified differentiation media, mTeSR1 feeder-free adapted cells: optic cup formation; assay type: cell-based; conditions: 2 and 3 fold increase in IGF-1 concentration, FIG. 15
Protocol: Human pluripotent stem cells were grown under feeder free conditions the effect of freeder free conditions on their differentiation potential to synthetic retina investigated.
mTeSR1 media (Stem Cell Technologies) is a highly specialised serum-free and complete media designed for feeder-free culture. Cells to this feeder-free technique and subjected to differentiation studies using the IGF-1 factor as discussed above.

differentiating hESCs = experiment: Optic vesicle and optic cup formation from EBs differentiated in 3D with IGF-1; assay type: cell-based, human
Protocol: hESC (line H9, WiCell) and hiPSC lines Clone 4^25 and NHDF^26 were expanded and differentiated as previously described.^14 For IGF-1 treatment, cultures were differentiated in VNIM media^14 supplemented with recombinant human IGF-1 (5 ng/ml, Sigma) until day 37, then in basal Knockout serum-free media^14 with 10 ng/ml IGF-1 until day 90 (FIG. 1A). Control cultures were differentiated in parallel in the absence of IGF-1. Time-lapse capture of culture morphology was achieved using a BioStation CT (Nikon).

Nc1nc2c(nc(Br)n2[C@@H]2O[C@@H]3COP(=O)(O)O[C@H]3[C@H]2O)c(=O)[nH]1 [8-br-cGMP]
Fura-2 fluorescence change (Ca2+ influx) ([1]; IGF-1 treated cultures, 1 mM in aCSF): decreased fluorescence

CC(C)(C)c1cc(C=C(C#N)C#N)cc(Br)c1O [(pi)IR]
viability of cultures (IGF-IR; after day 45, with and without exogenous IGF-1): did not remain viable
optic cups (IGF-IR; day 45): undetectable
optic vesicle production from differentiating EBs (IGF-IR; day 45, absence of IGF-1 ((pi)IR-), p=0.021): significantly reduced
optic vesicle production from differentiating EBs (IGF-IR; day 45, presence of IGF-1 ((pi)IR+), p=0.023): significantly reduced
survival of EBs (IGF-IR; days of differentiation, with and without IGF-1): ≤ 50 days

[Cl-].[Cl-].[Co+2] [cobalt chloride, Cobalt (II) chloride]
effect on cGMP-mediated increase in Ca2+ influx [1]: abolished

[Cl-].[Cl-].[Mg+2] [magnesium chloride]
effect on cGMP-mediated increase in Ca2+ influx [1]: abolished

IGF-1: recombinant human IGF-1 (Sigma), single-chain 70-amino-acid protein, SEQ ID NO:1
formation of optic cups on increasing concentration [2]: did not cause any significant changes
cGMP respondent cultures ([1]; by day 90, 8-br-cGMP stimulation): 45.3%
cGMP respondent cultures ([1]; day 45 of differentiation, 8-br-cGMP stimulation): 24.1%
frequency of optic vesicle formation (differentiating hESCs; IGF-1 in differentiation media vs control, FIG. 5I): significantly increased
optic vesicle formation relative to control levels (differentiating hESCs; by day 15): double
increase in optic vesicle and optic cup formation vs control (differentiating hESCs; by day 60): 4 fold
EBs with optic cup formation (differentiating hESCs; day 60, FIG. 5J, control 3.9%): 17.4%
